Assay results: US20080261923A1, “Alkene Mimics” (priority 2004, published 2008)

Biological target: human Pin1 (Homo sapiens, UniProt Q13526)
Test: IC50 measurement of inhibitors for Pin1 (chymotrypsin-coupled peptidyl-prolyl isomerase assay, SucAEPF-pNA)
Assay type: biochemical
Conditions: cis substrate SucAEPF-pNA 43.2 μM, 31 mM HEPES pH 7.8, 4° C., absorbance at 390 nm; read-out: IC50 value for the inhibition of human Pin1 peptidyl-prolyl isomerase activity
Method: Measurement of human Pin1 peptidyl-prolyl isomerase activity. The concentration of the cis conformation of substrate, SucAEPF-pNA, was determined by the UV absorbance of pNA (ε=12250 at […]) after cleavage by α-chymotrypsin. The cis component of the substrate was approximately 51%. The assay buffer (1050 μL of 35 mM HEPES, pH 7.8 at 0° C.; final concentration 31 mM HEPES) and Pin1 (10 μL of a 8.0 μM stock solution, concentration measured by Bradford assay, final concentration 67 nM) were pre-equilibrated in the spectrometer until the temperature reached 4.0° C. Immediately before the assay was started, 120 μL of ice-cooled α-chymotrypsin solution (60 mg/mL in 0.001 M HCl; final concentration 6 mg/mL) was added. Additional substrate solvent (0.47 M LiCl/TFE) was added as needed to bring the total volume of substrate and cosolvent to 10 μL. The peptide substrate, dissolved in dry 0.47 M LiCl/TFE, was added to the cuvette via syringe and the solution was mixed vigorously by inversion 3 times. The final volume in a semi micro 1 cm path length polystyrene cell was 1.2 mL.
IC50 measurement of inhibitors for Pin1. Human Pin1 was assayed at a cis substrate concentration of 43.2 μM. […] After a mixing delay of 6-8 sec, the progress of the reaction was monitored by absorbance at 390 nm for 90 sec.

Chain of human Pin1 (Q13526 whole entry): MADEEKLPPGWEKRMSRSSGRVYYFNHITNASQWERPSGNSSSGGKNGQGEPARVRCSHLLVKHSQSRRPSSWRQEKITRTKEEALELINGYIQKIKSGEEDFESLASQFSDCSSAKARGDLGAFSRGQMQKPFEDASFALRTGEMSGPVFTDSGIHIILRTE

- IC50: 970 nM
Structure (SMILES): CC(=O)N[C@@H](Cc1ccccc1)C(=O)N[C@@H](Cc1ccc(O)cc1)C(=O)N[C@H](/C=C1/CCC[C@H]1C(=O)N[C@@H](CCCNC(=N)N)C(N)=O)COP(=O)(O)O [Ac-Phe-Tyr-phosphoSer-Ψ[(Z)CH═C]-Pro-Arg-NH2]
